conditions: [M+H-H2O]+; instrument: TW; calibrated with polyalanine and drug standards

collision cross section (N2) | SMILES
231.7 Å² | CCCCCC(=O)Cc1cc(O)cc(O)c1C(=O)Oc1cc(CC(=O)CCCCC)c(C(=O)O)c(OC)c1 [ARTHONIOIC ACID]
166.5 Å² | CNc1ccccc1C(=O)N1CCc2c([nH]c3ccccc23)C1=O [RHETSININE]
209 Å² | CC(C)CCC[C@@H](C)[C@H]1CC[C@H]2[C@@H]3CC[C@H]4C[C@@H](O)CC[C@]4(C)[C@H]3CC[C@]12C [5alpha-CHOLESTANOL]

same assay, conditions: [M+H]+; instrument: TW; calibrated with polyalanine and drug standards

SMILES | collision cross section (N2)
C[C@@H]1CC[C@H]2[C@](C)(CO)[C@@H](O)CC[C@]2(C)[C@@]12CC[C@@](CO)(CCO)O2 [LAGOCHILIN] | 171.2 Å²
O=C(O)[C@H](O)[C@@H](O)[C@H](O[C@@H]1O[C@H](CO)[C@H](O)[C@H](O)[C@H]1O)[C@H](O)CO [LACTOBIONIC ACID] | 168.7 Å²
C1N2CN3CN1CN(C2)C3 [METHENAMINE] | 126.8 Å²
CC[C@H]1CN2CCc3cc(OC)c(OC)cc3[C@@H]2C[C@@H]1C[C@H]1NCCc2cc(OC)c(OC)cc21 [EMETINE] | 219.6 Å²
CC(=O)O[C@@H]1C[C@@]2(C)C(CC[C@@H]2C(C)=O)C2CCC3=CC(=O)CC[C@]3(C)C21 (some centres undefined) [11a-ACETOXYPROGESTERONE] | 190.6 Å²
CN1[C@H]2CC(=O)C[C@@H]1C(O)C2 (some centres undefined) [6-HYDROXYTROPINONE] | 131.6 Å²
C=C[C@H]1CN2CC[C@H]1C[C@@H]2[C@@H](OC(=O)OCC)c1ccnc2ccc(OC)cc12 [QUININE ETHYL CARBONATE] | 196.7 Å²
CC1(C)C[C@@H]2C(=O)CC[C@H]3O[C@]3(C)CC[C@H]21 [KOBUSONE] | 146.3 Å²
C[N+]1([O-])C2CCC1CC(OC(=O)C(CO)c1ccccc1)C2 (centres undefined) [ATROPINE OXIDE] | 172.4 Å²
Cc1[nH]c2ccccc2c1CN(C)C [2-METHYL GRAMINE] | 140.6 Å²
CC(=O)O[C@@H]1CC(=O)[C@@]2(C)C(CC(=O)[C@]3(C)C2CC[C@@]2(C)[C@H](c4ccoc4)OC(=O)C4OC423)C1(C)C (some centres undefined) [1,7-DIDEACETOXY-1,7-DIOXOKHIVORIN] | 210.9 Å²
CC(C)CC1C(=O)N2CCCC2C2(O)OC(NC(=O)C3C=C4c5cccc6[nH]cc(c56)CC4N(C)C3)(C(C)C)C(=O)N12 (stereo not drawn) [alpha-ERGOCRYPTINE] | 236.1 Å²
CC(C)CCCC1(C)C=Cc2c(O)c3c(c(CCC(C)C)c2O1)OC12C(CC4CC1C(C)(C)OC2(CCC(C)C(=O)O)C4O)C3=O (centres undefined) [DECAHYDROGAMBOGIC ACID] | 251 Å²
COC(=O)[C@@H]1OC(=O)C2OC23[C@@]1(C)CCC1[C@]2(C)C(C[C@@H](O)[C@]13C)C(C)(C)[C@H](OC(C)=O)C[C@@H]2OC(C)=O (some centres undefined) [DESACETYL (7)KHIVORINIC ACID, METHYL ESTER] | 216.9 Å²
C=C1C(=O)O[C@@H]2C[C@@]3(C)CCC[C@H](C)C3=C[C@H]12 [HELENINE] | 149.5 Å²
COc1ccc2c(c1OC)C(=O)O[C@@H]2[C@H]1c2cc3c(cc2CCN1C)OCO3 [HYDRASTINE (1R, 9S)] | 186.3 Å²
C=C[C@@](C)(O)CCC1C(=C)C[C@H](O)C2C(C)(C)CCCC12C (some centres undefined) [LARIXOL] | 176.2 Å²
CO[C@H]1[C@H](O)[C@H](O[C@H]2CC[C@@]3(C=O)[C@H](CC[C@@H]4[C@@H]3CC[C@]3(C)[C@@H](C5=CC(=O)OC5)CC[C@]43O)C2)O[C@@H](C)[C@@H]1O [PERUVOSIDE] | 239.4 Å²
Nc1ccncc1 [FAMPRIDINE] | 117.8 Å²
NC(=O)c1ncn([C@@H]2O[C@H](CO)[C@@H](O)[C@H]2O)c1N [ACADESINE] | 153 Å²
Oc1cccc2cccnc12 [8-HYDROXYQUINOLINE] | 123.6 Å²
C=C1C[C@@H]2[C@H](CC[C@]3(C)C(=O)CC[C@@H]23)[C@@]2(C)C=CC(=O)C=C12 [EXEMESTANE] | 171.1 Å²

The next lines start with the values.

collision cross section (N2) | SMILES
157.5 Å² | CCCOc1ccc2nc(NC(=O)OC)[nH]c2c1 [OXIBENDAZOLE]
213.6 Å² | COc1cc([C@H]2Oc3cc([C@H]4Oc5cc(O)cc(O)c5C(=O)[C@@H]4O)ccc3O[C@@H]2CO)ccc1O [SILIBININ]
164.5 Å² | COc1cc(C(=O)N2CCOCC2)cc(OC)c1OC [TRIMETOZINE]
134.7 Å² | Nc1ccc(O)c(C(=O)O)c1 [MESALAMINE]
143.7 Å² | CC1=NS(=O)(=O)c2cc(Cl)ccc2N1 [DIAZOXIDE]
191.9 Å² | CCN(CC)Cc1cc(Nc2ccnc3cc(Cl)ccc23)ccc1O [AMODIAQUINE]
146.1 Å² | CCCCS(=N)(=O)CC[C@H](N)C(=O)O (stereo partly drawn) [L-BUTHIONINE SULFOXIMINE]
200.6 Å² | CC(C)n1c(/C=C/[C@@H](O)C[C@@H](O)CC(=O)O)c(-c2ccc(F)cc2)c2ccccc21 [FLUVASTATIN]
160.5 Å² | COc1cc(OC)c2c(=O)cc(-c3ccccc3)oc2c1 [CHRYSIN DIMETHYL ETHER]
156 Å² | O=c1cc(-c2ccc(O)cc2)oc2cc(O)cc(O)c12 [APIGENIN]
197.3 Å² | COc1c(C)c2c(c(O)c1C/C=C(\C)CCC(=O)OCCN1CCOCC1)C(=O)OC2 [MYCOPHENOLATE MOFETIL]
162.8 Å² | COc1cc(OC)c2c(c1)OC(c1ccccc1)CC2=O (centres undefined) [ALPINETIN METHYL ETHER]
206.3 Å² | COC(=O)C[C@H]1C(C)(C)C(=O)[C@@H]2CC3=C(CC[C@]4(C)C3=CC(=O)O[C@H]4c3ccoc3)[C@@]1(C)C2=O [CARAPIN-8(9)-ENE]
156.5 Å² | COc1cc(C)c2c(=O)cc(-c3ccccc3)oc2c1 [METHOXYVONE]
157.6 Å² | CC(C)NCC(O)COc1cccc2[nH]ccc12 (centres undefined) [PINDOLOL]
140.2 Å² | COc1cc(OC)c(C(C)=O)c(O)c1C [METHYLXANTHOXYLIN]
128.6 Å² | COc1cc(O)ccc1C(C)=O [ISOPEONOL]

collision cross section (N2) | SMILES
153.5 Å² | CC(C)=CCOc1cc2oc(=O)ccc2cc1O [PRENYLETIN]
194.7 Å² | CC(=O)OCC(=O)[C@@]1(O)CCC2C3CCC4=CC(=O)C=C[C@]4(C)[C@@]3(F)[C@@H](O)C[C@@]21C (some centres undefined) [ISOFLUPREDNONE ACETATE]
120.4 Å² | [O-][n+]1cccc(CO)c1 [MEPIROXOL]
181.5 Å² | C=CCSCC1Nc2cc(Cl)c(S(N)(=O)=O)cc2S(=O)(=O)N1 (centres undefined) [ALTHIAZIDE]
196.8 Å² | Nc1nc(=O)c2nc(CNc3ccc(C(=O)N[C@@H](CCC(=O)O)C(=O)O)cc3)cnc2[nH]1 [FOLIC ACID]
167 Å² | CN/C(=C\[N+](=O)[O-])NCCSCc1ccc(CN(C)C)o1 [RANITIDINE]
171.8 Å² | CC(C)(C)NCC(O)COc1cccc2c1C[C@H](O)[C@H](O)C2 (some centres undefined) [NADOLOL]
153.5 Å² | CC1=CCc2c(cc3oc(C)cc(=O)c3c2O)OC1 [PTAEROXYLIN]
145.4 Å² | N[C@@H](Cc1ccc(O)c(O)c1)C(=O)O [LEVODOPA]
220.7 Å² | Cc1nc2sccn2c(=O)c1CCN1CCC(=C(c2ccc(F)cc2)c2ccc(F)cc2)CC1 [RITANSERIN]
156.5 Å² | O=c1c(-c2ccc(O)cc2)coc2cc(O)cc(O)c12 [GENISTEIN]
184.6 Å² | CC1Cc2ccccc2N1NC(=O)c1ccc(Cl)c(S(N)(=O)=O)c1 (centres undefined) [INDAPAMIDE]
227 Å² | COc1cccc2c1C(=O)c1c(O)c3c(c(O)c1C2=O)C[C@@](O)(C(=O)CO)C[C@@H]3O[C@H]1C[C@H](N)[C@H](O)[C@H](C)O1 [DOXORUBICIN]
125 Å² | CC(=O)Nc1ccccc1 [ACETANILIDE]
141.7 Å² | Cc1ncc([N+](=O)[O-])n1CC(O)CCl (centres undefined) [ORNIDAZOLE]
186.8 Å² | C[C@]12C=CC(=O)C=C1CC[C@H]1[C@@H]3C[C@@H](O)[C@](O)(C(=O)CO)[C@@]3(C)C[C@H](O)[C@@]12F [TRIAMCINOLONE]
196.7 Å² | C[C@@H]1CN(c2c(F)c(F)c3c(=O)c(C(=O)O)cn(C4CC4)c3c2F)C[C@H](C)N1 [ORBIFLOXACIN]

same assay, conditions: [M+Na]+; instrument: TW; calibrated with polyalanine and drug standards

SMILES | collision cross section (N2)
O=C(O)CCCCCCCC(O)C(O)CCCCCCO (centres undefined) [ALEURETIC ACID] | 175.9 Å²
CC(=O)N[C@H]1C(O)O[C@H](CO)[C@@H](O)[C@@H]1O[C@H](C)C(=O)O (some centres undefined) [N-ACETYLMURAMIC ACID] | 164.8 Å²
CCCCOC(=O)c1ccccc1C(=O)OCCCC [DIBUTYL PHTHALATE] | 180.7 Å²
CCCCCCCCCCCCCCCC(=O)OCC(O)CO (centres undefined) [1-MONOPALMITIN] | 195.9 Å²
C[C@@H]1CC[C@H]2[C@@H](C)C(=O)O[C@@H]3O[C@@]4(C)CC[C@@H]1[C@]32OO4 [ARTEMISININ] | 168.1 Å²

The next lines start with the values.

collision cross section (N2) | SMILES
153.2 Å² | C/C=C(/C(=C/C)c1ccc(O)cc1)c1ccc(O)cc1 [DIENESTROL]
205.9 Å² | C[C@@H]1O[C@@H](Oc2c(-c3ccc(O)c(O)c3)oc3cc(O)cc(O)c3c2=O)[C@H](O)[C@H](O)[C@H]1O [QUERCITRIN]
170.7 Å² | CS(=O)(=O)c1ccc([C@@H](O)[C@@H](CF)NC(=O)C(Cl)Cl)cc1 [FLORFENICOL]

same assay, conditions: [M]+; instrument: TW; calibrated with polyalanine and drug standards

SMILES | collision cross section (N2)
CCCCCCCCCCCC[N+](C)(C)Cc1ccccc1 [BENZALKONIUM CHLORIDE C12] | 193 Å²
C[N+]12CC[C@@]34c5ccccc5N5C(=O)CC6OCC=C(C1)[C@H](CC32)[C@@H]6C54 (some centres undefined) [STRYCHNINE METHIODIDE] | 175.2 Å²

From the C3SDB collision cross section collection
